In PubChem BioAssay AID328 (DTP/NCI, 2004):
Values joined by “and” are separate entries in the source; they are usually repeats but may differ in a detail not shown here. Equal values may be shown once. Toxic doses and inconclusive results are not listed.

System: BDF1 mice, P388 leukemia ip, median survival T/C
Test: NCI In Vivo Anticancer Drug Screen. Data for tumor model P388 Leukemia (intraperitoneal) in B6D2F1 (BDF1) mice
Details: endpoint: median survival time, higher = longer survival
Summary of the method: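 Vehicle-dosed animals serve as the reference; survival of compound-dosed, tumour-implanted mice is divided by it.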

[1] = dose: 100.0 mg/kg/injection, schedule: Q01DX001 (ip), vehicle: saline
[2] = dose: 200.0 mg/kg/injection, schedule: Q01DX001 (ip), vehicle: saline
[3] = dose: 400.0 mg/kg/injection, schedule: Q01DX001 (ip), vehicle: saline
[4] = dose: 50.0 mg/kg/injection, schedule: Q01DX009 (ip), vehicle: Klucel (hydroxypropylcellulose) (HPC)
[5] = dose: 100.0 mg/kg/injection, schedule: Q01DX009 (ip), vehicle: Klucel (hydroxypropylcellulose) (HPC)
[6] = dose: 100.0 mg/kg/injection, schedule: Q04DX003 (ip), vehicle: Klucel (hydroxypropylcellulose) (HPC)
[7] = dose: 200.0 mg/kg/injection, schedule: Q01DX009 (ip), vehicle: Klucel (hydroxypropylcellulose) (HPC)
[8] = dose: 200.0 mg/kg/injection, schedule: Q04DX003 (ip), vehicle: Klucel (hydroxypropylcellulose) (HPC)
[9] = dose: 400.0 mg/kg/injection, schedule: Q04DX003 (ip), vehicle: Klucel (hydroxypropylcellulose) (HPC)
[10] = dose: 100.0 mg/kg/injection, schedule: Q04DX003 (ip), vehicle: saline
[11] = dose: 100.0 mg/kg/injection, schedule: Q01DX009 (ip), vehicle: saline with Tween-80
[12] = dose: 100.0 mg/kg/injection, schedule: Q04DX003 (ip), vehicle: saline with Tween-80
[13] = dose: 200.0 mg/kg/injection, schedule: Q01DX009 (ip), vehicle: saline with Tween-80
[14] = dose: 200.0 mg/kg/injection, schedule: Q04DX003 (ip), vehicle: saline with Tween-80
[15] = dose: 400.0 mg/kg/injection, schedule: Q04DX003 (ip), vehicle: saline with Tween-80
[16] = dose: 50.0 mg/kg/injection, schedule: Q01DX009 (ip), vehicle: other
[17] = dose: 100.0 mg/kg/injection, schedule: Q01DX009 (ip), vehicle: other
[18] = dose: 50.0 mg/kg/injection, schedule: Q04DX003 (ip), vehicle: Klucel (hydroxypropylcellulose) (HPC)
[19] = dose: 100.0 mg/kg/injection, schedule: Q01DX001 (ip), vehicle: saline with Tween-80
[20] = dose: 200.0 mg/kg/injection, schedule: Q01DX001 (ip), vehicle: saline with Tween-80
[21] = dose: 400.0 mg/kg/injection, schedule: Q01DX001 (ip), vehicle: saline with Tween-80
[22] = dose: 50.0 mg/kg/injection, schedule: Q01DX009 (ip), vehicle: saline with Tween-80
[23] = dose: 25.0 mg/kg/injection, schedule: Q01DX009 (ip), vehicle: saline
[24] = dose: 50.0 mg/kg/injection, schedule: Q01DX009 (ip), vehicle: saline
[25] = dose: 100.0 mg/kg/injection, schedule: Q01DX009 (ip), vehicle: saline

O=C(NCCNC(=O)c1cccnc1)c1ccncc1
T/C [1]: 90 % of control
T/C [2]: 90 % of control
T/C [3]: 90 % of control

COc1cc(N(C)C)c(OC)cc1C=O
T/C [4]: 100 % of control
T/C [5]: 90 % of control
T/C [6]: 95 % of control
T/C [7]: 109 % of control
T/C [8]: 95 % of control
T/C [9]: 100 % of control

C=CC(C)(C)c1cc2cc3c(cc2oc1=O)OC(C(C)(C)OC(C)=O)C3 (stereo not drawn)
T/C [10]: 107 % of control
T/C (dose: 200.0 mg/kg/injection, schedule: Q04DX003 (ip), vehicle: saline): 104 % of control

CCCC(C)C(C)CC (stereo not drawn)
T/C (dose: 6.25 mg/kg/injection, schedule: Q01DX001 (ip), vehicle: saline with Tween-80): 91 % of control
T/C (dose: 12.5 mg/kg/injection, schedule: Q01DX001 (ip), vehicle: saline with Tween-80): 104 % of control
T/C (dose: 25.0 mg/kg/injection, schedule: Q01DX001 (ip), vehicle: saline with Tween-80): 116 % of control

CCOC(=O)c1[nH]c2c(c1CC(CC)[N+](=O)[O-])CCCC2 (stereo not drawn)
T/C [6]: 95 % of control
T/C [8]: 100 % of control
T/C [9]: 91 % of control

CC(=O)[C@@]12OC(C)(C)O[C@@H]1C[C@H]1[C@@H]3C[C@H](C)C4=CC(=O)CC[C@]4(C)[C@H]3CC[C@@]12C
T/C [11]: 104 % of control
T/C [12]: 109 % of control
T/C [13]: 104 % of control
T/C [14]: 95 % of control
T/C [15]: 104 % of control

CC(C)CC(NC(=O)CF)C(=O)O (stereo not drawn)
T/C (dose: 2.5 mg/kg/injection, schedule: Q01DX009 (ip), vehicle: saline): 111 % of control

COC1C(CO)OC(n2cnc3c(=S)nc(N)[nH]c32)C1O (stereo not drawn)
T/C [12]: 104 % of control
T/C [14]: 104 % of control
T/C (dose: 600.0 mg/kg/injection, schedule: Q04DX003 (ip), vehicle: saline with Tween-80): 122 % of control

NC(=O)c1cc(O)c(Br)c(O)c1
T/C [1]: 100 % of control
T/C [2]: 109 % of control
T/C [3]: 95 % of control

CC1(C)OS2(c3ccccc3)OC(=O)c3cccc1c32 (stereo not drawn)
T/C (dose: 50.0 mg/kg/injection, schedule: Q04DX002 (ip), vehicle: saline): 94 % of control
T/C (dose: 100.0 mg/kg/injection, schedule: Q04DX002 (ip), vehicle: saline): 100 % of control
T/C (dose: 200.0 mg/kg/injection, schedule: Q04DX002 (ip), vehicle: saline): 100 % of control

CCCCCCCCCCCCCCCCCCCC
T/C (dose: 6.25 mg/kg/injection, schedule: Q04DX003 (ip), vehicle: other): 100 % of control
T/C (dose: 12.5 mg/kg/injection, schedule: Q04DX003 (ip), vehicle: other): 100 % of control
T/C (dose: 25.0 mg/kg/injection, schedule: Q04DX003 (ip), vehicle: other): 100 % of control
T/C [16]: 100 % of control
T/C [17]: 100 % of control

COc1cc(C=Nc2ccc(C(=O)O)c(O)c2)ccc1N(CCCl)CCCl
T/C (dose: 3.6 mg/kg/injection, schedule: Q01DX009 (ip), vehicle: Klucel (hydroxypropylcellulose) (HPC)): 196 % of control
T/C (dose: 5.4 mg/kg/injection, schedule: Q01DX009 (ip), vehicle: Klucel (hydroxypropylcellulose) (HPC)): 94 % of control
T/C (dose: 8.2 mg/kg/injection, schedule: Q01DX009 (ip), vehicle: Klucel (hydroxypropylcellulose) (HPC)): 245 % of control
T/C (dose: 8.3 mg/kg/injection, schedule: Q01DX009 (ip), vehicle: Klucel (hydroxypropylcellulose) (HPC)): 184 % of control
T/C (dose: 12.5 mg/kg/injection, schedule: Q01DX009 (ip), vehicle: Klucel (hydroxypropylcellulose) (HPC)): 230 % of control and 272 % of control and 213 % of control
T/C (dose: 12.5 mg/kg/injection, schedule: Q04DX003 (ip), vehicle: Klucel (hydroxypropylcellulose) (HPC)): 115 % of control
T/C (dose: 18.75 mg/kg/injection, schedule: Q01DX009 (ip), vehicle: Klucel (hydroxypropylcellulose) (HPC)): 96 % of control
T/C (dose: 25.0 mg/kg/injection, schedule: Q04DX003 (ip), vehicle: Klucel (hydroxypropylcellulose) (HPC)): 115 % of control
T/C [18]: 100 % of control

O=C1c2ccccc2CC1(Cl)Cl
T/C [19]: 101 % of control
T/C [20]: 96 % of control
T/C [21]: 101 % of control

CCCC(O)C(NC(=O)CCl)C(=O)O (stereo not drawn)
T/C (dose: 125.0 mg/kg/injection, schedule: Q01DX005 (ip), vehicle: other): 104 % of control
T/C (dose: 250.0 mg/kg/injection, schedule: Q01DX005 (ip), vehicle: other): 104 % of control

COc1ccc(CC(=O)Cc2ccc(OC)c(OC)c2)cc1OC
T/C (dose: 25.0 mg/kg/injection, schedule: Q01DX009 (ip), vehicle: saline with Tween-80): 104 % of control
T/C [22]: 113 % of control
T/C [11]: 113 % of control and 123 % of control
T/C [12]: 109 % of control
T/C [13]: 95 % of control and 120 % of control
T/C [14]: 104 % of control
T/C (dose: 400.0 mg/kg/injection, schedule: Q01DX009 (ip), vehicle: saline with Tween-80): 118 % of control
T/C [15]: 90 % of control

CSc1cc(C)c(O)c(C)c1
T/C [16]: 104 % of control
T/C [17]: 104 % of control
T/C (dose: 200.0 mg/kg/injection, schedule: Q01DX009 (ip), vehicle: other): 104 % of control

CC1SC(c2ccccc2)N(c2nccs2)C1=O (stereo not drawn)
T/C [22]: 103 % of control
T/C [11]: 89 % of control
T/C [13]: 99 % of control

ClC(Cl)C(Cl)(Cl)C(Cl)(Cl)Cl
T/C [4]: 91 % of control
T/C [18]: 104 % of control
T/C [5]: 95 % of control
T/C [6]: 109 % of control
T/C [7]: 100 % of control
T/C [8]: 109 % of control

CC(CCCSC(=N)N)SC(=N)N (stereo not drawn)
T/C (dose: 12.5 mg/kg/injection, schedule: Q01DX009 (ip), vehicle: saline): 103 % of control
T/C [23]: 96 % of control and 105 % of control
T/C [24]: 97 % of control and 122 % of control
T/C [25]: 102 % of control and 103 % of control

C=C(C)[C@@H]1CC[C@]2(CO)CC[C@]3(C)[C@H](CC[C@@H]4[C@@]5(C)CC[C@H](O)C(C)(C)[C@@H]5CC[C@]43C)[C@@H]12
T/C (dose: 10.0 mg/kg/injection, schedule: Q01DX009 (ip), vehicle: saline with Tween-80): 94 % of control
T/C (dose: 20.0 mg/kg/injection, schedule: Q01DX009 (ip), vehicle: saline with Tween-80): 99 % of control
T/C (dose: 40.0 mg/kg/injection, schedule: Q01DX009 (ip), vehicle: saline with Tween-80): 100 % of control
T/C (dose: 75.0 mg/kg/injection, schedule: Q01DX009 (ip), vehicle: other): 97 % of control
T/C (dose: 80.0 mg/kg/injection, schedule: Q01DX009 (ip), vehicle: saline with Tween-80): 95 % of control
T/C [5]: 101 % of control
T/C (dose: 150.0 mg/kg/injection, schedule: Q01DX009 (ip), vehicle: other): 106 % of control
T/C [7]: 98 % of control
T/C (dose: 400.0 mg/kg/injection, schedule: Q01DX009 (ip), vehicle: Klucel (hydroxypropylcellulose) (HPC)): 111 % of control

COC(=O)c1cc(Cl)ccc1OCC(=O)NCc1ccc(Cl)cc1
T/C [19]: 100 % of control
T/C [20]: 95 % of control
T/C [21]: 90 % of control

O=C1c2ccccc2C(=O)c2c(NCCSCCO)ccc(NCCSCCO)c21
T/C (dose: 25.0 mg/kg/injection, schedule: Q01DX009 (ip), vehicle: other): 95 % of control
T/C [16]: 86 % of control
T/C [17]: 94 % of control

C=C1C(=O)OC2/C=C(\C)CC/C=C(/C)CC(O)C12 (stereo not drawn)
T/C (dose: 5.0 mg/kg/injection, schedule: Q04DX003 (ip), vehicle: saline with Tween-80): 98 % of control
T/C (dose: 10.0 mg/kg/injection, schedule: Q04DX003 (ip), vehicle: saline with Tween-80): 114 % of control
T/C (dose: 20.0 mg/kg/injection, schedule: Q04DX003 (ip), vehicle: saline with Tween-80): 98 % of control

CC1CCCCN1CCCO (stereo not drawn)
T/C [23]: 104 % of control
T/C [24]: 108 % of control
T/C (dose: 50.0 mg/kg/injection, schedule: Q04DX003 (ip), vehicle: saline): 92 % of control
T/C [25]: 112 % of control
T/C [10]: 96 % of control
